Reference: patent US20150175644A1, “MANNOSE DERIVATIVES AS ANTAGONISTS OF BACTERIAL ADHESION” (UNIVERSITY OF BASEL, priority 2009, published 2015)

Experiments:
[1] = test system: E. coli (strain RS 218); test: Preliminary clotting assay (E. coli-mediated clotting of C. albicans cells); type: cell-based; conditions: minimal concentration that prevents clotting of C. albicans cells by E. coli RS 218; triplicate
Experimental: Overnight cultures of C. albicans (strain ATCC 60193) and E. coli (strain RS 218) are prepared by suspending colony material from agar plates in 10 ml trypticase soy broth (TSB) each and incubated for 16-18 h at 37° C., the culture of E. coli without shaking, but the culture of C. albicans with agitation on a horizontal shaker at 200 rpm. The cells of 2 ml of each culture are washed twice with 1 ml phosphate buffered saline (PBS) by centrifugation (10 min at 2500×g), discarding the supernatant and re-suspension of the cell pellet in fresh PBS. After the last washing step, the optical density at 600 nm is measured and adjusted to 5.0 for C. albicans (corresponding to approx. 5×10^7 viable cells/ml) and to 3.0 for E. coli (corresponding to approx. 5×10^9 viable cells/ml). […] Each test well is supplied with 33 μl PBS or the test solution of the desired concentration, and 33 μl of E. coli suspension is added and mixed by slightly tapping the plate. After 5 min 33 μl of C. albicans suspension is added to give a total volume of 100 μl per well. As a negative clumping control, one well is left without addition of E. coli. The plate is incubated for 20 min at 37° C. on a horizontal shaker at 150 rpm and the cells are allowed to settle for 10 min at r.t. before the wells are inspected with the help of a magnifier for visual clumps. For each substance the minimal concentration that prevents clotting of C. albicans cells is noted. Each experiment is performed in triplicate.

[2] = test system: GFP tagged E. coli strain UTI89; test: Flow cytometry inhibition assay (adherence of GFP tagged UTI89 to bladder cell line 5637); type: cell-based; conditions: for IC50: Escherichia coli; for rIC50: ratio of IC50 to IC50 of reference HM, cell line 5637
Experimental: The GFP tagged E. coli strain UTI89 is statically incubated in Luria-Bertani broth for 24 h, washed twice and adjusted to an optical density at 600 nm (OD600) between 2.0 and 3.0. The human epithelial bladder carcinoma cell line 5637 was grown in RPMI 1640 medium, supplemented with 10% fetal calf serum (FCS), 100 U/ml penicillin and 100 μg/ml streptomycin at 37° C., 5% CO2 in 24-well plates. Cells were infected with 200 μl bacterial suspension (multiplicity of infection of 1:50 (cell:bacteria)), premixed with 25 μl of antagonists at different concentrations. To homogenize the infection, plates were centrifuged at room temperature for 3 min at 600 g. After an incubation of 1.5 h at 37° C., infected cells were washed four times with RPMI 1640 medium and suspended in ice-cold PBS for 5-20 min. Samples were measured with a CyAn ADP flow cytometer (Becton Dickinson, San Jose, Calif.) and analyzed by gating on the eukaryotic cells based on forward (FSC) and side scatter (SSC). A total of 10^4 cells were measured per sample. Data were acquired in a linear mode for the SSC and logarithmic mode for FSC and the green fluorescent channel FL1-H (e.g. GFP). The mean fluorescence intensity (MFI) of FL1-H was counted as a surrogate marker for the adherence of bacteria. Quantification of adhesion was evaluated with the FlowJo software 9.0.1 (Tree Star, Inc., Ashland, Oreg., USA). IC50 values were determined by plotting the concentration of the antagonist in a logarithmic mode versus the MFI and by fitting the curve with the prism software (GraphPad, inhibition curve, variable slope). The relative IC50 (rIC50) is the ratio of the IC50 of the test compound to the IC50 of the reference compound HM (n-heptyl α-D-mannopyranoside.

[3] = In vivo pharmacokinetics, single dose, urine and plasma sampling; set-up: species or system mouse; conditions: single i.v. application of 50 mg/kg, applied antagonist detected
Experimental: The aim is the identification of FimH antagonists suitable for intravenous (i.v.) or preferably peroral (p.o.) applications. Before infection studies in a mouse disease model could be performed, the in vivo pharmacokinetic parameters (Cmax, AUC) had to be determined, to ensure the antagonists availability in the target organ (bladder). Single-dose pharmacokinetic studies were performed by i.v. and p.o. application of the FimH antagonists at a concentration of 50 mg/kg followed by urine and plasma sampling. […] Antagonists were applied i.v. by injection into the tail vein and p.o. using a gavage followed by blood and urine sampling (10 μL) after 6 min, 30 min, 1 h, 2 h, 4 h, 6 h, 8 h and 24 h. Before analysis, proteins in blood and urine samples were precipitated using methanol and centrifuged for 11 min at 13,000 rpm. The supernatant was transferred into a 96-well plate and analyzed by LC-MS.

[4] = test system: E. coli strain UTI89; test: Aggregometer assay (disaggregation of E. coli UTI89 from guinea pig erythrocytes); type: cell-based; conditions: relative to heptyl α-D-mannopyranoside (rIC50=1)
Experimental: In analogy to N. Firon, I. Ofek, N. Sharon, Biochem. Biophys. Res. Comm. 1982, 105, 1426-1432, the following assay is conducted: E. coli strain UTI89 is statically incubated in Luria-Bertani broth for 24 h, washed twice and adjusted to an optical density at 600 nm (OD600) of 4.0. The percentage of aggregation of UTI89 to guinea pig erythrocytes (GPE) is quantitatively measured using an APACT 4004 aggregometer (Endotell AG, Allschwil, Switzerland) at 740 nm, 37° C. under stirring at 1000 rpm. For calibration, first the protein poor plasma (PPP) is measured using PBS 1% and set as 100% aggregation, followed by the protein rich plasma (PRP) using GPE at an OD600 of 4.0, set as 0% aggregation. After calibration, the measurement is initiated using 250 μL GPE and 50 μL bacterial suspension. Following the aggregation phase of 600 s, 25 μL of the antagonists at different concentrations are added and disaggregation is monitored over 1400 s. The FimH-deleted mutant of E. coli UTI89 is used to proof FimH-specific GPE agglutination. For evaluation, the area under the disaggregation curve (AUC) is calculated and compared to the reference, heptyl α-D-mannopyranoside (see Table 2). The activities are reported as rel. IC50 (rIC50) with heptyl α-D-mannopyranoside as reference compound (rIC50=1).

Question: For `O=[N+]([O-])c1ccc2c(ccn2-c2ccc(O[C@H]3O[C@H](CO)[C@@H](O)[C@H](O)[C@@H]3O)c(F)c2)c1` [Compound 34, 2-Fluoro-4-(5-nitroindol-1-yl)phenyl α-D-mannopyranoside], which “Average conc. to prevent clotting” value [1] is on record?
Answer: 0.833 µM

Question: What does the source list for `CCCCCCCO[C@H]1O[C@H](CO)[C@@H](O)[C@H](O)[C@@H]1O` [HM, heptyl α-D-mannopyranoside, reference compound]?
Answer: Average conc. to prevent clotting [1]: 42 µM; IC50 [2]: 3.9 ± 1.6 µM; rIC50 [2]: 1; AUC0-24 i.v. ([3]; plasma): 34.3 ± 33.3 µg·h/mL; AUC0-24 i.v. ([3]; urine): 2469.3 ± 636.4 µg·h/mL; rIC50 (measured in the aggregometer assay) [4]: 1

Question: With `OC[C@H]1O[C@H](Oc2ccc(-n3ccc4ccccc43)cc2Cl)[C@@H](O)[C@@H](O)[C@@H]1O` [Compound 29a, 2-Chloro-4-(indol-1-yl)phenyl α-D-mannopyranoside] as the compound, how does the “Average conc. to prevent clotting” value [1] read?
Answer: 1.111 µM

Question: Which “Average conc. to prevent clotting” value [1] does the source give for `OC[C@H]1O[C@H](Oc2ccc(-n3ccc4ccccc43)cc2F)[C@@H](O)[C@@H](O)[C@@H]1O` [Compound 32, 2-Fluoro-4-(indol-1-yl)phenyl α-D-mannopyranoside] here?
Answer: 5.556 µM

Question: For `O=[N+]([O-])c1ccc2c(ccn2-c2ccc(O[C@H]3O[C@H](CO)[C@@H](O)[C@H](O)[C@@H]3O)c(Cl)c2)c1` [Compound 29b, 2-Chloro-4-(5-nitroindol-1-yl)phenyl α-D-mannopyranoside], which “Average conc. to prevent clotting” value [1] is on record?
Answer: 0.556 µM

Question: And the IC50 [2]?
Answer: 0.59 ± 0.045 µM

Question: What about the rIC50 [2] of the same compound?
Answer: 0.15
